Experimental data published in ChEMBL document CHEMBL1201862, “PubChem BioAssay data set” (2004).
Activity calls are given as the source filed them.

How the values were obtained:
[1] = biological target: T1, High affinity choline transporter 1 (Homo sapiens, UniProt Q9GZV3); experiment: CHT inhibitors, dose response, cell-based, 5-point CRC, membrane potential dye (AID 504840); assay type: functional
T1 sequence (Q9GZV3 whole entry): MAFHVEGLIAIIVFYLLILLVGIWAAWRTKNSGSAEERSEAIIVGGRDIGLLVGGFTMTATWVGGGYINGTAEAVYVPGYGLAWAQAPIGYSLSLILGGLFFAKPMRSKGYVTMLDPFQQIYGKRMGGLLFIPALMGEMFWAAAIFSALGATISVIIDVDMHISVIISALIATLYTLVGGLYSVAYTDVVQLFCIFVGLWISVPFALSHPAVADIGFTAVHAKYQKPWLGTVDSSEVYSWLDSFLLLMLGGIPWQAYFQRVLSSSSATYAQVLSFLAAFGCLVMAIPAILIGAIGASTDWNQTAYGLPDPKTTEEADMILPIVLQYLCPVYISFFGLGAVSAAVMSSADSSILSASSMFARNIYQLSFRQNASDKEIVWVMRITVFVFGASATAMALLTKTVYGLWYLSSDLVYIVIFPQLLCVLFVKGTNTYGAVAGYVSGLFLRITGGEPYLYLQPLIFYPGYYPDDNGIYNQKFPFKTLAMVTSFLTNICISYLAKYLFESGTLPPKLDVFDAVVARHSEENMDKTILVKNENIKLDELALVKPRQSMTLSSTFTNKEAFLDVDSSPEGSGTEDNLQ

[2] = biological target: Heat shock protein HSP 90-alpha (Homo sapiens, UniProt P07900); assay type: functional, organism-based
cells = assay type: functional
[3] = Vero E6 cell cytotoxicity, dose response, cytotoxicity control for non-replicating M. tuberculosis project, secondary assay (AID 492998); assay type: functional, VeroE6; settings: Vero C1008
[4] = THP-1 cell cytotoxicity, dose response, cytotoxicity control for non-replicating M. tuberculosis project (AID 489025); assay type: functional
Cytochrome P450 3A4 = Cytochrome P450 3A4 (Homo sapiens, UniProt P08684);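 note: CYP3A4 tested as one member of a cytochrome P450 panel screen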
Coagulation factor XII = biological target: T2, Coagulation factor XII (Homo sapiens, UniProt P00748); assay type: functional;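 note: activated factor XIIa alpha cleaving a fluorogenic AMC peptide substrate; inhibitor potency from loss of enzyme activity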
T2 sequence (P00748 whole entry): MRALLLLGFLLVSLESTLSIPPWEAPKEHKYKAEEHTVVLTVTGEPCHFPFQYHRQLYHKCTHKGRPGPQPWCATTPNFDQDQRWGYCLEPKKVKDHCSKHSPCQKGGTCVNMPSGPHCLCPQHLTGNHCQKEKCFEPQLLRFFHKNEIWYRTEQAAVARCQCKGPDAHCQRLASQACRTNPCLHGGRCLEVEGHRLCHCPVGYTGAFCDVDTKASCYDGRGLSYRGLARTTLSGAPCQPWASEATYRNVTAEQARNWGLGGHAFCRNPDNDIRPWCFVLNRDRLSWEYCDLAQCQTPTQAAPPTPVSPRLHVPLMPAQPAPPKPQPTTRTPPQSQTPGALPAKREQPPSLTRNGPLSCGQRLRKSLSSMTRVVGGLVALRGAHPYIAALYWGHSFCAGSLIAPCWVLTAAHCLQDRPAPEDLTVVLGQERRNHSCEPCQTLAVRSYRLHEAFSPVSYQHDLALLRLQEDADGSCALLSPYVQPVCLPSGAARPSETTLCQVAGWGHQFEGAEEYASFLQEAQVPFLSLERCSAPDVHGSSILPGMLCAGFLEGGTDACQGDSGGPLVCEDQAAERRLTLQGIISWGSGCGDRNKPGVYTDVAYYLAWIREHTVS

Cytochrome P450 2C9 = Cytochrome P450 2C9 (Homo sapiens, UniProt P11712)
Cytochrome P450 2C19 = Cytochrome P450 2C19 (Homo sapiens, UniProt P33261); experiment: Cytochrome panel assay with activity outcomes. Panel member name: p450-cyp2c19 Compounds with AC50 equal or less than 10 uM are considered active; assay type: functional; settings: read-out: AC50
[5] = biological target: Luciferin 4-monooxygenase (Photinus pyralis, UniProt P08659); experiment: firefly luciferase enzyme inhibitors, dose response, biochemical, luminescence (AID 1891)
[6] = Luminescence Cell-Based Dose Confirmation HTS to Identify Inhibitors of Platelet Dense Granule Release. [Related pubchem assays: 1663 (Primary HTS), 1678 (Summary of Project)]; assay type: functional
[7] = cytotoxicity in HEK-293T cells, dose response, cytotoxicity control for TCR NF-kB inhibitor project, luminescence, T-cell screen hits (AID 489026); assay type: functional, cell-based;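 note: cells exposed to compound about 14 hours before the viability readout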
BJ [8] = experiment: cells; assay type: functional, cell-based; settings: Homo sapiens
BJ [9] = experiment: cytotoxicity toward BJ-TERT fibroblasts, dose response, cell-based, RAS-independent, luminescence (AID 1933); assay type: functional; settings: Homo sapiens
BJ [10] = experiment: cytotoxicity toward BJ-TERT-LT-ST fibroblasts, dose response, cell-based, RAS-independent, luminescence (AID 1935); assay type: functional; settings: Homo sapiens;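 note: BJ fibroblasts immortalized with TERT plus LT and ST oncogenes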
[11] = biological target: T3, Heat shock factor protein 1 (Mus musculus, UniProt P38532); experiment: inhibition of MG132-induced HSE-luciferase signal, confirmation, cell-based, NIH3T3, luminescence, dose retest (AID 2382); assay type: functional;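 note: NIH3T3 fibroblasts with HSF1-driven luciferase reporter stressed by proteasome inhibitor MG132; luminescence from HSF1-driven luciferase expression after 8 hours of MG132 stress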
T3 sequence (P38532 whole entry): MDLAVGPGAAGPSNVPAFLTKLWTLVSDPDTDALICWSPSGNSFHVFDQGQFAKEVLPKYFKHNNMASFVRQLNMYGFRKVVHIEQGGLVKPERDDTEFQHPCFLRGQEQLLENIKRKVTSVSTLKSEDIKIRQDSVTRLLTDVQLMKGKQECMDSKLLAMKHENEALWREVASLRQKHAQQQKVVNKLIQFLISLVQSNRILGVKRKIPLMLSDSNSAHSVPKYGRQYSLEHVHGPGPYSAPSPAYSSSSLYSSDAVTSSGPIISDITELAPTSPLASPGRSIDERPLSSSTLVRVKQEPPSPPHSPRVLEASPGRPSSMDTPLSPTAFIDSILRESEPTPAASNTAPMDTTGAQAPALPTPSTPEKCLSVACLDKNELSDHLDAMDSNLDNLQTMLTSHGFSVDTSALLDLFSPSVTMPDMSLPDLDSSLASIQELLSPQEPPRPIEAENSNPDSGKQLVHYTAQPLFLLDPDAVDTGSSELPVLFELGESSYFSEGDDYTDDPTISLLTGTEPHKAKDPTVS

[12] = cytotoxicity toward DRD oncogenic fibroblasts, dose response, cell-based, non-viral oncogenic, luminescence (AID 1934); assay type: functional; settings: Homo sapiens
[13] = biological target: Glucose-6-phosphate 1-dehydrogenase (Homo sapiens, UniProt P11413); experiment: human G6PD enzyme inhibitors, dose response, selectivity assay for P. falciparum G6PD inhibitor project, biochemical, fluorescence (AID 504792); assay type: functional
[14] = Shn3 3'UTR reporter inhibitors, dose response, cell-based, Clone20 osteoblasts, firefly luciferase, cherry-picked (AID 624132); assay type: functional;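 note: firefly luciferase luminescence from reporter carrying the Shn3 3'UTR in osteoblasts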
[15] = control 3'UTR Renilla luciferase suppression, dose response, counter-screen for Shn3 inhibitor project, cell-based, Clone20-Shn3RL, cherry-picked (AID 624133); assay type: functional
Cytochrome P450 1A2 = biological target: T4, Cytochrome P450 1A2 (Homo sapiens, UniProt P05177);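 note: PubChem cytochrome P450 panel assay, CYP1A2 panel member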
T4 sequence (P05177 whole entry): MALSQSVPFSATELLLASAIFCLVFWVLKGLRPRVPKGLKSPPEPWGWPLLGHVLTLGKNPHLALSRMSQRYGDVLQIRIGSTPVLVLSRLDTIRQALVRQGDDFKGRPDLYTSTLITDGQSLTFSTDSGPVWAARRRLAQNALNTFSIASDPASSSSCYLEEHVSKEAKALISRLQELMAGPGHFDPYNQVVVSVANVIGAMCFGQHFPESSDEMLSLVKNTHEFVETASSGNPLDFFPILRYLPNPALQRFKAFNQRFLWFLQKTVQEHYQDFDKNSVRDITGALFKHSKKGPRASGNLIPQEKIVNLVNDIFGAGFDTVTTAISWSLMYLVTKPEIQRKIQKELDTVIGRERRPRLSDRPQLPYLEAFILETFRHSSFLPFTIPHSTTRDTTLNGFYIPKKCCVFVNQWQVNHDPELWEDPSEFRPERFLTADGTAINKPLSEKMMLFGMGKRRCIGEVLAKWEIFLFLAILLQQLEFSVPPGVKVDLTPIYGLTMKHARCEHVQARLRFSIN

[16] = HepG2 cell cytotoxicity, dose response, cytotoxicity control for Shn3 inhibitor project, CellTiter-Glo, cherry-picked (AID 624134); assay type: functional, cell-based
Protein skinhead-1 = biological target: T5, Protein skinhead-1 (Caenorhabditis elegans, UniProt P34707); assay type: functional
T5 sequence (P34707 whole entry): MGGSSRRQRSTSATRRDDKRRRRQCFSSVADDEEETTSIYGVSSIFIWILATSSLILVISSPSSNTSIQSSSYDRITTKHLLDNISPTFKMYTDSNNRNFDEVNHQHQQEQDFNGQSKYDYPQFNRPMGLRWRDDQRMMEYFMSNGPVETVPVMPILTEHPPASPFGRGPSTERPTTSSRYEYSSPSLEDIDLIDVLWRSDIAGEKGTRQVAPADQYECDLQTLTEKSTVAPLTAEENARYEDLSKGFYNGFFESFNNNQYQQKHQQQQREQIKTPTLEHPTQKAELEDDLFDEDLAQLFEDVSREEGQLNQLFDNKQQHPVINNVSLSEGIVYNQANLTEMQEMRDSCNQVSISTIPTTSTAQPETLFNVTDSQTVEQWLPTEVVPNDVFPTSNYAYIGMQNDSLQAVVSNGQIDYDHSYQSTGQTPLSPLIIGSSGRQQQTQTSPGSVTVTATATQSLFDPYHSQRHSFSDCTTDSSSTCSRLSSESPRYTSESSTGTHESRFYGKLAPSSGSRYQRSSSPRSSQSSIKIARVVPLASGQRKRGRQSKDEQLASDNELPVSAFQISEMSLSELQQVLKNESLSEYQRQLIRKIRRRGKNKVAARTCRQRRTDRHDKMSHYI

[17] = biological target: T6, Alkaline phosphatase, tissue-nonspecific isozyme (Homo sapiens, UniProt P05186); experiment: human TNAP enzyme inhibitors, SAR follow-up, biochemical, luminescent, dose response (AID 1056)
T6 sequence (P05186 whole entry): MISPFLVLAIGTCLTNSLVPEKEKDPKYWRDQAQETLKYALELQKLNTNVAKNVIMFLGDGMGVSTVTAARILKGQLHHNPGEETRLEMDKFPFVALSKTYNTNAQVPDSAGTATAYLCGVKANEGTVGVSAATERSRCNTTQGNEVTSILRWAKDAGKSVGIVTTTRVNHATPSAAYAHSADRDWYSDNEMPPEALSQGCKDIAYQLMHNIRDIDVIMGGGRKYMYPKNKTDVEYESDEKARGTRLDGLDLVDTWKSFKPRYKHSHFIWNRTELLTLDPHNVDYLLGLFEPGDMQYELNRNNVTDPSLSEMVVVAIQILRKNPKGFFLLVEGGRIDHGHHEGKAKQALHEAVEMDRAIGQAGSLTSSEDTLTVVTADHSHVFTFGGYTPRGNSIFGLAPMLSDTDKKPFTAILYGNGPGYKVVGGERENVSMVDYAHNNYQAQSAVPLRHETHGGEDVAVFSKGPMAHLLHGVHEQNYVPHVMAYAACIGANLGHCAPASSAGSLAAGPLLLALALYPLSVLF

[18] = biological target: Glyceraldehyde-3-phosphate dehydrogenase (Homo sapiens, UniProt P04406)
Glyceraldehyde-3-phosphate dehydrogenase, sequence (P04406 whole entry): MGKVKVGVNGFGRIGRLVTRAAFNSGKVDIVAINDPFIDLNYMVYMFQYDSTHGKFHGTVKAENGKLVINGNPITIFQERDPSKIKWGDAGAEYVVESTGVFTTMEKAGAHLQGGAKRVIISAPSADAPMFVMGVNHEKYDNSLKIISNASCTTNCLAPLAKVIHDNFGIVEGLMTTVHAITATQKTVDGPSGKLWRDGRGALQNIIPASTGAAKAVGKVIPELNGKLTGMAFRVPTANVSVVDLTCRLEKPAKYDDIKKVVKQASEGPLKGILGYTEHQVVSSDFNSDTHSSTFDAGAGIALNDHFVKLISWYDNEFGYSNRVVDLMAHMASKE

Cytochrome P450 2C19, sequence (P33261 whole entry): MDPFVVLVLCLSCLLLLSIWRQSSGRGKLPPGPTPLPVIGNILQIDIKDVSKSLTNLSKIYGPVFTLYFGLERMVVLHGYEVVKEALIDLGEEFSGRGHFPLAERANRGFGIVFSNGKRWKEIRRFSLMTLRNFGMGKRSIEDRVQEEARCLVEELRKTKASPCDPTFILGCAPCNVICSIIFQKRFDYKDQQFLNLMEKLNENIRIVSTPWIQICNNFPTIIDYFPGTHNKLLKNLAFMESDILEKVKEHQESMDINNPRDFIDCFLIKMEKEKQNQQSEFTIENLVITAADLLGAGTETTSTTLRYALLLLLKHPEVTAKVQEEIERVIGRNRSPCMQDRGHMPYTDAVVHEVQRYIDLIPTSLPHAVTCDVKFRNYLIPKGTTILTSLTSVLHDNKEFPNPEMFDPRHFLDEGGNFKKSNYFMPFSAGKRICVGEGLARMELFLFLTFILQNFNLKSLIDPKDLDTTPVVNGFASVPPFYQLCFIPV
Cytochrome P450 3A4, sequence (P08684 whole entry): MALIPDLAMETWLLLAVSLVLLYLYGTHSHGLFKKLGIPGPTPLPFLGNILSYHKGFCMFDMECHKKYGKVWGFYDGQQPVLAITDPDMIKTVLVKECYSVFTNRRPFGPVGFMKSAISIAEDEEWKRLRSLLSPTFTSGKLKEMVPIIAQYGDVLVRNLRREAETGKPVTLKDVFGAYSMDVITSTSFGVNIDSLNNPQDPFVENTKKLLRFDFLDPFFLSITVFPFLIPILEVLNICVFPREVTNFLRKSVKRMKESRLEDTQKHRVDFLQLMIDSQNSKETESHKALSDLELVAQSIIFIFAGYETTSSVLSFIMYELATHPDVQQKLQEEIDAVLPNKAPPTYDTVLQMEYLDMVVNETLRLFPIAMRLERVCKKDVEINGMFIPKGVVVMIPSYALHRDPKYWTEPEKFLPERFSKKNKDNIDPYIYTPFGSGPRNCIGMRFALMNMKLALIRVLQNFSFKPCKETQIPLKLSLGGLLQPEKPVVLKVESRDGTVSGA
Glucose-6-phosphate 1-dehydrogenase, sequence (P11413 whole entry): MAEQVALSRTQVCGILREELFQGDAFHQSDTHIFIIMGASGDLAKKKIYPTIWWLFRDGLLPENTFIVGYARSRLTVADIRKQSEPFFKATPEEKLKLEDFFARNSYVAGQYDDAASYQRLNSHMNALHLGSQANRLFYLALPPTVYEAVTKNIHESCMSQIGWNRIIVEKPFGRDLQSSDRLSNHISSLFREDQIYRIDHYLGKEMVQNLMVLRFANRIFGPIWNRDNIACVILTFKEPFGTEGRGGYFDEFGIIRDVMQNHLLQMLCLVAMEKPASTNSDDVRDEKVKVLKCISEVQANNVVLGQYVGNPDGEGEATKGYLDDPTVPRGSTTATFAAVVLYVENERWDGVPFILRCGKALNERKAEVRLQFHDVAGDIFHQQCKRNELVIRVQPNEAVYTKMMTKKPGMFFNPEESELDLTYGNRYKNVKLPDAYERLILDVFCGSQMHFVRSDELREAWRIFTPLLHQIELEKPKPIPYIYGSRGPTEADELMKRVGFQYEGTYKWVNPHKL
Luciferin 4-monooxygenase, sequence (P08659 whole entry): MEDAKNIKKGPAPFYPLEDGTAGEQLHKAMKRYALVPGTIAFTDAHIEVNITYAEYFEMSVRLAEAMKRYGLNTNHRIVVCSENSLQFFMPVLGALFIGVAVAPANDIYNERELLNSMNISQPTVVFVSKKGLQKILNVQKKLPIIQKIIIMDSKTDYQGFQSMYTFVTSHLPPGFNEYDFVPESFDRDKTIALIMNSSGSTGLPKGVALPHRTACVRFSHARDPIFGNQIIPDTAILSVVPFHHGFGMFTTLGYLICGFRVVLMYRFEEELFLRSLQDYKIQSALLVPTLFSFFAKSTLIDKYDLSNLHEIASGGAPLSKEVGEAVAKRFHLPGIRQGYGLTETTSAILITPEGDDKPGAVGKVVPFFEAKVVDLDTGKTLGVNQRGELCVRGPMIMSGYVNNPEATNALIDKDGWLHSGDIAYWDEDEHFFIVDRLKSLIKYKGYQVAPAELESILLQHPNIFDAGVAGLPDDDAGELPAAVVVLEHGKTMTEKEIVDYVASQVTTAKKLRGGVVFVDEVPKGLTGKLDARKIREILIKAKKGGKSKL
Cytochrome P450 2C9, sequence (P11712 whole entry): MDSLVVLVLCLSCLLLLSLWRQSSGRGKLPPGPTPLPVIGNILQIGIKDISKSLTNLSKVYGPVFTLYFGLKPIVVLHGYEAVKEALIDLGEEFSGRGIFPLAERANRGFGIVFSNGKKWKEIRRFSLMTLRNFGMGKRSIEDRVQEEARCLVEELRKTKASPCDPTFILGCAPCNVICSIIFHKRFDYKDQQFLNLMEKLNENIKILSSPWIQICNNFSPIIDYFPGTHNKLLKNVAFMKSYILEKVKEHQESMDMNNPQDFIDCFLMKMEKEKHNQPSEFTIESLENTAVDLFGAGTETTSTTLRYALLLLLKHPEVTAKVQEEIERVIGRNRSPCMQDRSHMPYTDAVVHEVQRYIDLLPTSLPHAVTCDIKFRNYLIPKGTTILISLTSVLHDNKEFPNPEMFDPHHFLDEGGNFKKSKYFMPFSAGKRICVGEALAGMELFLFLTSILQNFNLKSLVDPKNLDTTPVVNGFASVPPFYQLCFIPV

SMILES: C=Cn1cc[n+](CC(=O)c2ccc(Br)cc2)c1
- IC50 [1]: 15.1 µM (active)

SMILES: O=C(Nc1nnc(-c2ccc(F)cc2)o1)c1cc(Cl)sc1Cl
- AC50 [2]: 1.99 µM (active)
- IC50 [1]: 14.5 µM (active)
- IC50 (cells): 0.24 µM (active)
- CC50 [3]: 15.3 µM (active)
- CC50 [4]: 24.2 µM (active)

SMILES: O=C(c1cccc(F)c1)N1CCC2(CC1)CN(c1ccc(-c3ccccc3)cc1)C2
- AC50 (Cytochrome P450 3A4): inconclusive

SMILES: CCOC(=O)C1(Cc2cccc(F)c2)CCN(C(=O)Cn2cnnn2)CC1
- IC50 (Coagulation factor XII): > 50 µM (inactive)

SMILES: CC(=O)O[C@H]1CC[C@@]2(C)C(=CC[C@@H]3[C@H]2CC[C@]2(C)C(=O)CC[C@H]32)C1
- AC50 (Cytochrome P450 2C9): 15.8 µM (inconclusive)
- AC50 (Cytochrome P450 2C19): 5.01 µM (inconclusive)
- AC50 (Cytochrome P450 3A4): inconclusive

SMILES: CCOC(=O)c1c(C)nc2sc3c(=O)n(-c4ccc(OC)cc4)nnc3c2c1-c1ccc(OC)cc1
- EC50 [5]: > 112 µM (not active)
- EC50 [6]: > 112 µM (not active)
- AC50 (Cytochrome P450 2C19): 2.51 µM (inconclusive)
- AC50 (Cytochrome P450 3A4): inconclusive

SMILES: CC(C)Cn1c(-c2ccccc2)nc2ccccc2c1=O
- IC50 (Coagulation factor XII): > 50 µM (inactive)

SMILES: Cc1ccc(-c2cc3c(N=O)c4ccccc4c-3[nH]n2)cc1
- EC50 [5]: 0.207 µM (active)
- IC50 [7]: > 80 µM (inactive)
- EC50 (BJ [8]): 6.73 µM (active)
- EC50 (BJ [9]): 6.45 µM (active)
- EC50 [6]: 3.05 µM (active)
- EC50 (BJ [10]): 13.1 µM (active)
- EC50 [11]: 4.95 µM (active)
- EC50 [12]: 6.32 µM (active)

SMILES: COc1ccccc1CN1C(=O)[C@@H]2C(CCC(N)=O)NC3(C(=O)Nc4c3ccc(Cl)c4C)[C@@H]2C1=O (stereo partly specified)
- IC50 [1]: 16.6 µM (active)

SMILES: Cc1cc(NC(=O)c2ccccc2F)n(-c2nc3ccccc3[nH]2)n1
- IC50 (cells): > 50 µM (active)
- CC50 [3]: 17.6 µM (active)
- CC50 [4]: > 40 µM (active)

SMILES: COc1ccc(CCn2c(NN=C3CCCCC3)nc3c2c(=O)[nH]c(=O)n3C)cc1
- IC50 [13]: 11.6 µM (active)

SMILES: CCCCc1ccc(NC(=O)CSc2nc(=O)n(CCCN3CCOCC3)c3c2CCC3)cc1
- IC50 [1]: 13.8 µM (active)

SMILES: Cc1c(C(=O)Nc2cccc(C(F)(F)F)c2)oc2ccc(S(=O)(=O)N3CCOCC3)cc12
- AC50 [14]: 3.8 µM (active)
- AC50 [15]: > 70 µM (inactive)
- AC50 (Cytochrome P450 1A2): 10 µM (inconclusive)
- AC50 (Cytochrome P450 3A4): inconclusive
- AC50 [16]: > 70 µM (inactive)
- IC50 (Protein skinhead-1): > 100 µM (inactive)

SMILES: CCOc1ccc(CC(=O)C2C(=O)CCCC2=O)cc1OCC
- AC50 (Cytochrome P450 2C19): 39.8 µM (inconclusive)
- AC50 (Cytochrome P450 3A4): inconclusive

SMILES: O=C1c2ccccc2C(=O)N1c1nc(-c2cccnc2)n[nH]1
- IC50 [17]: > 100 µM (inactive)
- IC50 [18]: > 100 µM (not active)

SMILES: O=C(N/N=C/c1cccc([N+](=O)[O-])c1)C(=O)N1CCCCCC1
- IC50 [13]: > 80 µM (inactive)
